± gives the standard deviation of the averaged measurements.
Key:
Assay in all cases: level (log10 ratio to DMSO vehicle control); higher = higher biomarker level / cell amount than vehicle control
[1] = compound: FC(F)(F)C(F)(F)C(F)(F)CC1CO1 [1H,1H-Heptafluorobutyl epoxide]; conditions: in DMSO
Description: (§1)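 BioMAP Diversity Plus panel of 12 human primary cell co-culture systems (3C, 4H, LPS, SAg, BT, BF4T, BE3C, CASM3C, HDF3CGF, KF3CT, MyoF, Mphg). Compounds were added 1 h before stimulation and left for 24 h (MyoF 48 h; BT 72 h for soluble read-outs or 6 d for IgG). Biomarkers were read by ELISA, cytotoxicity by SRB, PBMC viability and proliferation by Alamar Blue. Each well value was divided by the mean of 8 DMSO control wells on the same plate and log10 transformed; duplicate blinded samples were tested at 4 concentrations.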

[2] = compound: FC(F)(F)C(F)(F)C(F)(F)C(F)(F)C(F)(F)C(F)(F)C(F)(F)I [1-Iodopentadecafluoroheptane]; conditions: in DMSO
Description: as §1

[3] = compound: C=C(C)C(=O)OCCC(F)(F)C(F)(F)C(F)(F)C(F)(F)C(F)(F)C(F)(F)F [6:2 Fluorotelomer methacrylate]; conditions: in DMSO
Description: as §1

[4] = compound: NS(=O)(=O)C(F)(F)C(F)(F)C(F)(F)C(F)(F)C(F)(F)C(F)(F)F [Perfluorohexanesulfonamide]; conditions: in DMSO
Description: as §1

[5] = compound: C=CC(=O)OCC(F)(F)C(F)(F)C(F)(F)COC(=O)C=C [1H,1H,5H,5H-Perfluoro-1,5-pentanediol diacrylate]; conditions: 6700 nM; in DMSO
Description: as §1

[6] = compound: O=S(=O)(O)CCC(F)(F)C(F)(F)C(F)(F)C(F)(F)C(F)(F)C(F)(F)F [6:2 Fluorotelomer sulfonic acid]; conditions: in DMSO
Description: as §1

Test System | level (log10) ([1]; 6700 nM) | level (log10) ([1]; 20000 nM) | level (log10) ([1]; 60000 nM) | level (log10) ([2]; 6700 nM) | level (log10) ([2]; 20000 nM) | level (log10) ([3]; 6700 nM) | level (log10) ([3]; 20000 nM) | level (log10) ([3]; 60000 nM) | level (log10) ([4]; 6700 nM) | level (log10) ([4]; 20000 nM) | level (log10) ([4]; 60000 nM) | level (log10) [5] | level (log10) ([6]; 6700 nM) | level (log10) ([6]; 20000 nM) | level (log10) ([6]; 60000 nM)
HDF3CGF:TIMP-1 | -0.0015 ± 0.067 | 0.015 ± 0.068 | -0.0025 ± 0.071 | -0.0185 ± 0.0021 | -0.024 ± 0.0042 | -0.049 ± 0.028 | -0.0115 ± 0.0078 | -0.0055 ± 0.0035 | 0.0235 ± 0.0078 | 0.048 ± 0.021 | 0.05 ± 0.017 | -0.245 ± 0.011 | 0.0225 ± 0.08 | -0.0045 ± 0.076 | 0.0175 ± 0.13
KF3CT:CCL2/MCP-1 | -0.031 ± 0.04 | -0.0685 ± 0.023 | -0.026 ± 0.042 | 0.0065 ± 0.0092 | 0.0015 ± 0.016 | -0.051 ± 0.021 | -0.0475 ± 0.005 | -0.0235 ± 0.005 | -0.0225 ± 0.021 | -0.0525 ± 0.013 | -0.0145 ± 0.013 | -0.0955 ± 0.018 | 0.0125 ± 0.00071 | 0.0035 ± 0.013 | -0.0145 ± 0.043
KF3CT:CD54/ICAM-1 | 0.003 ± 0.013 | -0.012 ± 0.0042 | -0.0105 ± 0.025 | -0.015 ± 0.0085 | -0.018 ± 0.021 | 0.006 ± 0.016 | -0.014 ± 0.031 | -0.0075 ± 0.005 | -0.0235 ± 0.015 | -0.019 ± 0.0085 | -0.0285 ± 0.025 | -0.076 ± 0.0042 | -0.0095 ± 0.0064 | -0.0265 ± 0.0035 | -0.037 ± 0.0071
KF3CT:CXCL8/IL-8 | -0.021 ± 0.027 | -0.0135 ± 0.03 | 0.0015 ± 0.0035 | 0.0135 ± 0.0021 | 0.014 ± 0.0028 | -0.004 ± 0.0057 | 0.0085 ± 0.011 | -0.007 ± 0.011 | -0.039 ± 0.023 | -0.0345 ± 0.0092 | -0.0395 ± 0.03 | -0.041 ± 0.027 | -0.0005 ± 0.035 | -0.001 ± 0.027 | -0.0455 ± 0.022
KF3CT:CXCL10/IP-10 | -0.011 ± 0.027 | -0.012 ± 0.021 | -0.0175 ± 0.016 | -0.005 ± 0.014 | -0.0085 ± 0.00071 | 0.019 ± 0.0057 | 0.0245 ± 0.013 | 0.031 ± 0.0014 | -0.012 ± 0.013 | -0.019 ± 0.014 | -0.0875 ± 0.0035 | -0.023 ± 0.0085 | -0.0105 ± 0.011 | -0.0055 ± 0.015 | -0.0135 ± 0.00071
KF3CT:IL-1alpha | -0.009 ± 0.011 | -0.0255 ± 0.015 | 0.0095 ± 0.037 | -0.006 ± 0.0042 | -0.004 ± 0.0071 | -0.033 ± 0.025 | -0.0395 ± 0.029 | -0.0335 ± 0.026 | 0.026 ± 0.025 | 0.03 ± 0.028 | 0.052 ± 0.02 | -0.125 ± 0.02 | 0.0115 ± 0.016 | 0.0005 ± 0.016 | -0.0255 ± 0.039
KF3CT:PAI-I | -0.0145 ± 0.00071 | -0.0115 ± 0.018 | -0.014 ± 0.0085 | -0.0055 ± 0.04 | -0.0275 ± 0.028 | -0.0465 ± 0.018 | -0.035 ± 0.016 | -0.0535 ± 0.03 | 0.0045 ± 0.016 | 0.0035 ± 0.021 | -0.0285 ± 0.022 | 0.014 ± 0.0028 | 0.0025 ± 0.0021 | -0.012 ± 0.018 | -0.0135 ± 0.0092
KF3CT:SRB | -0.001 ± 0.0085 | 0.001 ± 0.0028 | -0.001 ± 0.0057 | 0.0015 ± 0.0064 | 0.005 ± 0.0057 | -0.005 ± 0.0085 | 0 | -0.001 ± 0.0057 | 0 ± 0.0099 | -0.008 ± 0.0028 | -0.014 ± 0.0042 | -0.01 ± 0.0085 | -0.004 | 0.0005 ± 0.0035 | 0.006 ± 0.016
KF3CT:TIMP-2 | 0.039 ± 0.0042 | -0.006 ± 0.016 | 0.0365 ± 0.06 | -0.009 ± 0.021 | -0.0225 ± 0.00071 | -0.0445 ± 0.0064 | 0.008 ± 0.013 | 0.022 ± 0.038 | -0.01 ± 0.02 | -0.0115 ± 0.0064 | 0.008 ± 0.0057 | -0.056 ± 0.021 | -0.029 ± 0.0085 | -0.0035 ± 0.012 | 0.0015 ± 0.012
KF3CT:uPA | -0.0085 ± 0.047 | 0.017 ± 0.067 | -0.019 ± 0.033 | -0.014 ± 0.013 | 0.0105 ± 0.044 | -0.016 ± 0.013 | -0.011 ± 0.023 | -0.0015 ± 0.0078 | -0.006 ± 0.023 | -0.0215 ± 0.019 | 0.0025 ± 0.022 | -0.0035 ± 0.013 | 0.0015 ± 0.005 | -0.0115 ± 0.019 | 0.008 ± 0.03
LPS:CCL2/MCP-1 | -0.0025 ± 0.005 | -0.017 ± 0.023 | -0.0095 ± 0.0021 | 0.0035 ± 0.00071 | 0.0225 ± 0.0021 | -0.007 ± 0.05 | -0.014 ± 0.034 | -0.043 | -0.011 ± 0.0028 | -0.024 ± 0.018 | -0.102 ± 0.034 | -0.042 ± 0.014 | 0.0095 ± 0.0021 | 0.037 ± 0.018 | 0.056 ± 0.037
LPS:CD40 | 0.0165 ± 0.054 | 0.0105 ± 0.053 | 0.026 ± 0.024 | 0.0645 ± 0.11 | -0.006 ± 0.15 | -0.022 ± 0.045 | -0.04 ± 0.024 | -0.0335 ± 0.11 | 0.005 ± 0.068 | -0.045 ± 0.09 | -0.191 ± 0.04 | -0.209 ± 0.024 | 0.025 ± 0.048 | 0.0165 ± 0.037 | -0.015 ± 0.024
LPS:CD62E/E-Selectin | 0.0105 ± 0.012 | -0.009 ± 0.016 | 0.0035 ± 0.036 | -0.0155 ± 0.005 | -0.002 ± 0.0071 | 0.0095 ± 0.018 | 0.003 ± 0.018 | 0.0335 ± 0.0064 | -0.002 ± 0.0099 | -0.0295 ± 0.012 | -0.0815 ± 0.011 | -0.0265 ± 0.022 | 0.034 ± 0.021 | 0.007 ± 0.014 | 0.027 ± 0.023
LPS:CD69 | -0.012 ± 0.031 | -0.0365 ± 0.029 | 0.0095 ± 0.018 | -0.0105 ± 0.033 | 0.037 ± 0.0057 | -0.0355 ± 0.019 | -0.0095 ± 0.026 | 0.0175 ± 0.053 | -0.009 ± 0.013 | -0.061 ± 0.016 | -0.169 ± 0.005 | -0.0365 ± 0.036 | -0.0315 ± 0.037 | -0.033 ± 0.055 | -0.111 ± 0.057
LPS:CD106/VCAM-1 | 0.01 ± 0.017 | 0.0125 ± 0.0064 | 0.002 ± 0.0071 | 0.0045 ± 0.016 | -0.005 ± 0.0071 | 0.0165 ± 0.0092 | -0.0025 ± 0.021 | 0.0055 ± 0.018 | -0.029 ± 0.047 | -0.0315 ± 0.049 | -0.097 ± 0.016 | -0.118 ± 0.071 | -0.0055 ± 0.067 | -0.0005 ± 0.074 | 0.0115 ± 0.042
LPS:CD141/Thrombomodulin | 0.059 ± 0.0071 | 0.039 ± 0.079 | 0.019 ± 0.033 | 0.0215 ± 0.023 | -0.024 ± 0.075 | -0.039 ± 0.025 | -0.0465 ± 0.04 | -0.091 ± 0.017 | -0.0155 ± 0.0092 | -0.017 ± 0.017 | -0.0095 ± 0.028 | 0.0505 ± 0.054 | 0.061 ± 0.03 | 0.065 ± 0.0057 | 0.0475 ± 0.021
LPS:CD142/Tissue Factor | 0.011 ± 0.014 | 0.0085 ± 0.018 | 0.015 ± 0.0085 | 0.0105 ± 0.07 | 0.036 ± 0.02 | 0.007 ± 0.09 | 0.0765 ± 0.043 | 0.0165 ± 0.098 | 0.0095 ± 0.025 | 0.012 ± 0.0085 | 0.022 ± 0.0071 | -0.107 ± 0.03 | -0.0015 ± 0.064 | 0.02 ± 0.0085 | 0.0275 ± 0.026
LPS:CXCL8/IL-8 | -0.019 ± 0.031 | -0.0135 ± 0.028 | 0.003 ± 0.031 | 0.026 ± 0.055 | 0.0325 ± 0.005 | 0.006 ± 0.014 | 0.023 ± 0.011 | 0.0455 ± 0.015 | -0.005 ± 0.0071 | -0.0015 ± 0.013 | -0.034 ± 0.0071 | -0.0285 ± 0.00071 | 0.045 ± 0.013 | 0.072 ± 0.064 | 0.192 ± 0.1
LPS:IL-1alpha | -0.027 ± 0.023 | -0.0115 ± 0.023 | 0.0085 ± 0.022 | -0.0655 ± 0.03 | -0.0495 ± 0.047 | -0.0225 ± 0.079 | -0.0355 ± 0.022 | 0.052 ± 0.0042 | -0.0075 ± 0.053 | 0.032 ± 0.013 | 0.0185 ± 0.0078 | -0.078 ± 0.038 | 0.007 ± 0.011 | 0.0225 ± 0.023 | 0.037 ± 0.05

Reference: the supplement of paper PMC10331698
